From US11291719B2, “Methods and compositions for modulating Akt3” (Augusta University Research Institute, Inc., priority 2016, dated 2022)

Experiments:
Akt3 pS472 = molecular target: T1, Akt3 pS472 (Homo sapiens, UniProt Q9Y243); assay: Akt3 phosphorylation in A2780 cells; assay type: cell-based; conditions: human ovarian carcinoma cells (A2780)
T1 construct: expression of Akt1 pS473, Akt2 pS474, Akt3 pS472, and Akt pan 5473,474,472 in A2780 cells; endogenous in cells; host or cells: A2780 human ovarian carcinoma cells
Source text: FIG. 10 is a bar graph showing the effect of mJJ64A on the expression of Akt1 pS473, Akt2 pS474, Akt3 pS472, and Akt pan 5473,474,472 in A2780 cells compared to control. The Y axis represents integrated density value.

FoxP3 = assay: Western blot of FoxP3 in Tconv cells during iTreg induction; assay type: cell-based; conditions: TGF-β induced
Source text: (§1) FIG. 12 is a western blot showing the expression of FoxP3, pAkt3, Akt3, pAkt1, and Akt1 in activated Tconv cells induced with TGF-β and treated with various concentrations of mJJ64A.

Akt3 = molecular target: T2, Akt3 (Homo sapiens, UniProt Q9Y243); assay: Western blot of Akt3 in Tconv cells during iTreg induction; assay type: cell-based; conditions: TGF-β induced
T2 construct: endogenous in cells
Source text: as §1

iTregs = assay: Proliferation of activated iTregs; assay type: cell-based; conditions: TGF-β induced
Source text: FIGS. 13A-13H show histograms representing proliferation of activated iTregs induced with TGF-β and treated with various concentrations of mJJ64A. FIG. 13I is a bar graph showing percent proliferation of iTregs treated with various concentrations of mJJ64A. The X-axis represents concentration of mJJ64A. The Y-axis represents percent proliferation. FIG. 13J is a bar graph showing the percent of live cells in iTregs treated with various concentrations of mJJ64A. The X axis represents treatment and the Y axis represents percentage of live cells.

nTregs = assay: Proliferation and viability of activated nTregs; assay type: cell-based
Source text: FIGS. 14A-14H is a set of histograms showing proliferation of activated nTregs treated with various concentrations of mJJ64A. FIG. […] is a bar graph showing percent proliferation of nTregs treated with various concentrations of mJJ64A. The X-axis represents treatment and the Y-axis represents percent proliferation. FIG. 13J is a bar graph showing the percent of live cells in nTregs treated with various concentrations of mJJ64A. The X-axis represents treatment and the Y-axis represents percentage of live cells.
(§2) FIGS. 16A-16L is a set of histograms showing the suppressive function of untreated and mJJ64A treated nTregs. The ratio of nTreg to Tconv cells is 0:1, 0.5:1, 1:1, 2:1, and 3:1.

[1] = test system: non-Treg CD4 and CD8 T cells; assay: Proliferation of non-Treg CD4 and CD8 T cells; assay type: cell-based; conditions: data not shown
mouse iTreg cells = assay: Suppressive function of mouse iTregs in vitro; assay type: cell-based; conditions: iTreg to Tconv ratios 0:1 to 2:1
Source text: FIGS. 15A-15J is a set of histograms showing the suppressive function of mouse iTregs in untreated and mJJ64A treated iTregs. The ratio of iTreg to Tconv cells was 0:1, 0.5:1, 1:1, and 2:1.

mouse nTregs cells = assay: Suppressive function of mouse nTregs in vitro; assay type: cell-based; conditions: nTreg to Tconv ratios 0:1 to 3:1
Source text: as §2

IL-10 = IL-10 production by nTregs; assay type: cell-based; conditions: percent IL-10+ FoxP3+ cells
Source text: FIG. 17 is a bar graph representing the percent of IL-10^+ FoxP3^+ cells in nTregs treated with various concentrations of mJJ64A.

TC-1 tumor = TC-1 tumor growth under mJJ64A; assay type: in vivo, mouse; conditions: compared to untreated controls
Source text: FIG. 18A is an illustration showing the experimental method and treatment schematic for TC-1 tumor experiments. FIG. 18B is a line graph showing tumor volume (cm^3) over time (days) for untreated (▴) and mJJ64A treated (♦) TC1 tumor bearing mice.

[2] = test system: Tregs, CD8+ and FoxP3NEG CD4 T cells; assay: T cell populations in tumors and spleens of TC-1 mice; assay type: in vivo, mouse
Source text: FIG. 19A is a bar graph representing the number of CD8^+ cells per 10^6 live cells in tumors from untreated and mJJ64A treated mice. FIG. 19B is a bar graph representing the number of CD4^+ cells per 10^6 live cells in tumors from untreated and mJJ64A treated mice. FIG. 19C is a bar graph representing the number of FoxP3^+ cells per 10^6 CD4^+ cells in tumors from untreated and mJJ64A treated mice. FIG. 19D is a bar graph representing the number of CD8^+, FoxP3^NEG CD4^+, and Treg cells per 10^6 live cells in the spleen of untreated or mJJ64A treated tumor-bearing mice. FIG. 19E is a bar graph representing the number of CD8^+, FoxP3^NEG CD4^+, and Treg cells per 10^6 live cells in the spleen of untreated or mJJ64A treated tumor-free mice.

[3] = test system: experimental autoimmune encephalomyelitis (EAE); assay: Experimental autoimmune encephalomyelitis (EAE) model; assay type: in vivo, mouse
Source text: FIG. 24A is a schematic illustration of induction of experimental autoimmune encephalomyelitis (EAE) model. FIG. 24B is a chart showing the grading criterion for scoring severity of EAE. FIG. 24C is a line graph showing EAE score over time (days post EAE induction) for control (●), iTreg (blue circle), and mJJ64A-10 (▾) treated mice. The X-axis represents time (days) and the Y-axis represents EAE score. FIG. 24D is a line graph showing percent survival over time (days) for untreated (•), iTreg treated (●), and mJJ64A-10 treated (▾) mice. The X-axis represents time (days) and the Y-axis represents percent survival. FIG. 24E is a line graph representing EAE score over time (days post EAE induction) for control (●), iTreg (♦), mJJ64A-3 (blue circle), mJJ64A-6 (▾), and mJJ64A-10 (▴) treated EAE mice. The X-axis represents time (days post EAE induction) and the Y-axis represents EAE score. FIG. 24F is a line graph representing percent survival over time (days) for untreated (•), iTreg (blue circle), mJJ64A-3 (▾), mJJ64A-6 (▴), and mJJ64A-10 (♦) treated EAE mice. The X-axis represents time (days) and the Y-axis represents percent survival.

Tregs = assay: Percent of Tregs in EAE mice; assay type: in vivo, mouse; conditions: compared to untreated
Source text: FIGS. 25A-251 are bar graphs showing the percent of FoxP3^+ cells per CD4^+ T cells, FoxP3^− cells per CD4^+ T cells, and ROR^+ cells per CD4^+ T cells in the spleen (FIG. 25A-25C), blood (FIG. 25D-25F), and brain (FIG. 25G-251) of UT, iTreg, mJJ64A-3, mJJ64A-6 and mJJ64A-10 treated EAE mice. The X-axis represents treatment group and the Y-axis represents number of FoxP3^+ cells, FoxP3^−, or ROR^+ cells per CD4^+ cells.

T2 sequence (Q9Y243 whole entry): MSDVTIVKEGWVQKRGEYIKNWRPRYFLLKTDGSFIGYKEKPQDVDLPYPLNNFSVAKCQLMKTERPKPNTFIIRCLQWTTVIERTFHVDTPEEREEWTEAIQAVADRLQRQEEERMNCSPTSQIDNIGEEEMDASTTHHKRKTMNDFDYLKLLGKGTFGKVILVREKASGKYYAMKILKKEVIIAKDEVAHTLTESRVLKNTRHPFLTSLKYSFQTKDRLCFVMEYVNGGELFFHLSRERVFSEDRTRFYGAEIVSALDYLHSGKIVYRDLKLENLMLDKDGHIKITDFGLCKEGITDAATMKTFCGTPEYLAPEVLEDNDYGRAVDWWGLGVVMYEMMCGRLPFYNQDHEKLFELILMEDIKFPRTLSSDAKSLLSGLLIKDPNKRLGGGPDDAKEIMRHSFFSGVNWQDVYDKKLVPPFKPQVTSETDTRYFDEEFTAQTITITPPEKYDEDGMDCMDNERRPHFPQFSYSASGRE
T1 sequence (Q9Y243 whole entry): as above

What does the source list for `N#Cc1ccc2nccc(Nc3ccc(C(=O)Nc4ccc(Nc5ccncc5)cc4)cc3)c2c1` [Compound 2]?
phosphorylation of Akt3 (Akt3 pS472): significantly increases; expression of FoxP3 in Tconv cells during iTreg induction (FoxP3): increased; expression of Akt3 in Tconv cells during iTreg induction (Akt3): increased; proliferation of iTregs (iTregs): increased; viability of nTregs (nTregs): without affecting; proliferation of nTregs (nTregs; activated nTregs): increased; proliferation of non-Treg CD4 and CD8 T cells [1]: not; suppressive function of mouse iTreg cells in vitro (mouse iTreg cells): increased; suppressive function of mouse nTregs cells in vitro (mouse nTregs cells): increased; IL-10 production by nTregs (IL-10): increased; TC-1 tumor growth (TC-1 tumor): significantly increased; number of Tregs in the tumors and spleens ([2]; compared to untreated controls): increased; tumor-infiltration of CD8+ and FoxP3NEG CD4 T cells ([2]; mouse, in vivo): not affected; disease progression in EAE model ([3]; EAE score): reduced; survival rate in EAE model ([3]; mouse, in vivo): increased; percent of Tregs in the spleen, blood, and brain (Tregs): increased
